Test [1] deals with guinea pig. In words: Delayed hypersensitivity skin test to arsanilic tyrosine after immunisation with antigen mixture plus test compound in FIA. Particulars: s.c. in FIA emulsion, skin test day 14, read at 24 hours, relative to FIA = 1. The class given is in vivo. The method, then: (§1) The antigen mixture used consists of 20 μg. of arsanilic tyrosine and 100 μg. of protein [either bovine serum albumin (BSA) or ovalbumin]. The antigen mixture and the compounds to be tested, at the dose levels per guinea pig shown in the Table below, are dissolved in saline and emulsified with an equal volume of Freund's Incomplete Adjuvant (FIA). Groups of ten guinea pigs are used for each test compound and each guinea pig is injected with 0.1 ml. of the above emulsion, subcutaneously, in the nuchal region. Control groups are given the antigen mixture alone emulsified with FIA.
After 14 days, all animals are skin tested using 25 μg arsanilic tyrosine conjugated to either BSA or ovalbumin (BSA is used in this test when ovalbumin is present in the antigen mixture and vice versa) which is given in 0.1 ml saline intradermally in the flanks of the animals. The potencies of the test compounds in stimulating the delayed hypersensitivity reaction are then computed by multiplying the average area of the skin reaction at 24 hours by a number from 1 to 3 which is a measure of the amount of infiltration observed in each skin reaction. Thus, the procedure is as follows: skin tests with a high degree of infiltration are scored as ++ and assigned the number 3; those with a lesser degree are scored as + and given the number 2, whereas skin reactions with no infiltration are scored as zero and assigned the number 1. These numbers are then totaled for the animals in a group and the average number obtained is then multiplied by the average area of the observed skin reaction. There is thus included in the potencies the amount of infiltration coupled with the average area observed in the skin test.

The test system of test [2] is guinea pig. In words: Antibody titre (antibovine serum albumin or antiovalbumin) in sera by passive hemagglutination or Farr radioimmune assay. In kind it is in vivo. Particulars: s.c. in FIA emulsion, sera of day 42, relative to FIA = 1. The protocol:
as §1
On day 42 all animals are bled by cardiac puncture and the sera assayed for antibovine serum albumin or antiovalbumin antibodies by the passive hemagglutination technique or by radioimmune assay using the Farr technique (P. Minden and R. S. Farr in "Handbook of Experimental Immunology", edited by D. M. Weir, Chapter 15, Volume 1, Blackwell Scientific Publications, Oxford) using ^125 iodine labeled bovine serum albumin. Average potencies of these assays are presented in Column 2 of the Table below relative to FIA having the value of one.

Each structure is given as a SMILES string.

Take `CC(=O)N[C@H]1C(O)O[C@H](CO)[C@@H](O)[C@@H]1O[C@H](C)C(=O)N[C@@H](C)C(=O)N[C@H](CCC(=O)O)C(N)=O` (stereo partly drawn) [2-(2-acetamido-2-deoxy-D-glucos-3-O-yl)-D-propionyl-L-alanyl-D-isoglutamine, reference compound]: the “Average Potency, Delayed Hypersensitivity to Arsanilic Tyrosine” value (from here on “Average Potency … to Arsanilic Tyrosine”) in the test with guinea pig [1] (dose 50 μg per guinea pig) came to 3.3. Further, in the test on guinea pig [2] (dose 50 μg per guinea pig), the “Average Potency, Antibody Titre” value was 3.7.
For `CC(=O)N[C@H]1C(O)O[C@H](CO)[C@@H](O)[C@@H]1O[C@H](C)C(=O)N[C@@H](CC(C)C)C(=O)N[C@H](CCC(=O)O)C(N)=O` (stereo partly drawn) [2-(2-acetamido-2-deoxy-D-glucos-3-O-yl)-D-propionyl-L-leucyl-D-isoglutamine], in that order: 7.5 and 5.3.
With `CC(=O)N[C@H]1C(O)O[C@H](CO)[C@@H](O)[C@@H]1O[C@H](C)C(=O)N[C@@H](CCCCN)C(=O)N[C@H](CCC(=O)O)C(N)=O` (stereo partly drawn) [2-(2-acetamido-2-deoxy-D-glucos-3-O-yl)-D-propionyl-L-lysyl-D-isoglutamine], the “Average Potency … to Arsanilic Tyrosine” value with guinea pig [1] (dose 20 μg per guinea pig) worked out at 0.9. For the same compound, the “Average Potency, Antibody Titre” value in the test on guinea pig [2] (dose 20 μg per guinea pig) turned out to be 1.2.
Regarding `CC(=O)N[C@H]1C(O)O[C@H](CO)[C@@H](O)[C@@H]1O[C@H](C)C(=O)N[C@@H](Cc1ccccc1)C(=O)N[C@H](CCC(=O)O)C(N)=O` (stereo partly drawn) [2-(2-acetamido-2-deoxy-D-glucos-3-O-yl)-D-propionyl-L-phenylalanyl-D-isoglutamine], in the test on guinea pig [1] (dose 50 μg per guinea pig), the “Average Potency … to Arsanilic Tyrosine” value came to 7.2. The “Average Potency, Antibody Titre” value in the test with guinea pig [2] (dose 50 μg per guinea pig) was determined as 7.1.
Consider `CC(=O)N[C@H]1C(O)O[C@H](CO)[C@@H](O)[C@@H]1O[C@H](C)C(=O)N1CCC[C@H]1C(=O)N[C@H](CCC(=O)O)C(N)=O` (stereo partly drawn) [2-(2-acetamido-2-deoxy-D-glucos-3-O-yl)-D-propionyl-L-prolyl-D-isoglutamine], for which, in the test on guinea pig [1] (dose 50 μg per guinea pig), the “Average Potency … to Arsanilic Tyrosine” value stood at 6.6. In the test on guinea pig [2] (dose 50 μg per guinea pig), the “Average Potency, Antibody Titre” value was 7.0.
Regarding `CC(=O)N[C@H]1C(O)O[C@H](CO)[C@@H](O)[C@@H]1O[C@H](C)C(=O)N[C@@H](Cc1ccc(O)cc1)C(=O)N[C@H](CCC(=O)O)C(N)=O` (stereo partly drawn) [2-(2-acetamido-2-deoxy-D-glucos-3-O-yl)-D-propionyl-L-tyrosyl-D-isoglutamine], the “Average Potency … to Arsanilic Tyrosine” value in the test with guinea pig [1] (dose 20 μg per guinea pig) amounted to 6.5. The “Average Potency, Antibody Titre” value with guinea pig [2] (dose 20 μg per guinea pig) is on record as 2.3.
In the case of `CC(=O)N[C@H]1C(O)O[C@H](CO)[C@@H](O)[C@@H]1O[C@H](C)C(=O)N[C@H](C(=O)N[C@H](CCC(=O)O)C(N)=O)C(C)C` (stereo partly drawn) [2-(2-acetamido-2-deoxy-D-glucos-3-O-yl)-D-propionyl-L-valyl-D-isoglutamine], the “Average Potency … to Arsanilic Tyrosine” value in the test with guinea pig [1] (dose 50 μg per guinea pig) is on record as 7.1. Besides, the “Average Potency, Antibody Titre” value in the test on guinea pig [2] (dose 50 μg per guinea pig) was determined as 4.0.

For the origin of these results see patent publication US4082736A, “Novel immunological adjuvant compounds and methods of preparation thereof” (Syntex (U.S.A.) Inc., priority 1976, dated 1978).
